Columns and labels:
[1] = test system: normal rats and SART stress rats; assay: Analgesic effect, pain induced by Bradykinin; assay type: in vivo, rats (SD-strain male)
Procedure: 5.4 Method of measuring a pain induced by Bradykinin:
Groups each comprising 4-8 SD-strain male normal rats and SART stress rats to which SART stress had been applied for 4 days were used. The tests were carried out according to the method of Deffenu et al. [Deffenu, G., Pegrassi, L., & Fumachi. B.; J. Pharm. Pharmacol.; 18, 135 (1966)] and Blane method [Blane, G. F.; J. Pharm. Pharmacol.; 19, 367 (1967)]. The effect judged was shown by ratio of the rats in which the effect was recognized according to the method of Abe, et al. [Abe, Kaneko & Takagi; Folia Pharmacol. Japon.; 67, 9-14 (1971)].

[2] = test system: spontaneously hypertensive rats (SHR); assay: Antihypertensive effect in spontaneously hypertensive rats; assay type: in vivo; settings: 60 minutes
Procedure: 8. Antihypertensive effect: Groups of rats each comprising 6-9 spontaneously hypertensive rats (SHR) were used. The compounds of the present invention or DPH was given intraperitoneally. The rate of antihypertension 60 minutes after the administration was determined.

Wistar-strain male rats = assay: Antiulcerogenic effect on Shay's ulcer (operative ulcer); assay type: in vivo; settings: 10 times
Procedure: 6.2. Antiulcerogenic effect on Shay's ulcer (operative ulcer):
Tests were carried out by using groups of rats each comprising 5-10 Wistar-strain male rats according to Shay method [Shay Harry; Gastroenterology,; 5, 43 (1945)]. Ulcers in the anterior stomach were classified on the following basis:
2. 1-5 small ulcers (diameter of less than 3 mm)
3. 6 or more small ulcers or one big ulcer (diameter of more than 3 mm)
4. two or more big ulcers

dd-strain male mice [3] = assay: Antiulcerogenic effect on Takagi's restraint-plus-water-immersing ulcer; assay type: in vivo; settings: Mus musculus, ip; for inhibition in vivo at 125 mg/kg: 125 mg/kg intraperitoneal; for inhibition in vivo at 75 mg/kg: 75 mg/kg intraperitoneal
Procedure: 6.1 Antiulcerogenic effect on Takagi's restraint-plus-water-immersing ulcer: Groups each comprising 8-26 dd-strain male mice were used. The tests were carried out according to a method of Takagi, et al. [Chem. Pharm. Bull.; 12, 465 (1964)]. Sum of length of diseased parts in the glandular stomach was measured and it was compared with that of control group. The compounds of the present invention or DPH was given intraperitoneally immediately before the restraint and immersion in water.

isolated duodenum = assay: Recovery of acetylcholine sensitivity of isolated duodenum of SART stress mice (Magnus method); assay type: in vivo, mice (dd-strain male); settings: 6th day, Ach 10^-7 g/ml, Average ± S.E.
Source text: (§1) SART stress animals used in the tests described below were raised according to a method of Kita, et al. [Folia Pharmacol. Japan.: 71, 195-210 (1975)].
3. Effect of recovering acetylcholine (Ach) sensitivity of isolated intestinal tract:
Groups each comprising at least 10 dd-strain male mice were used. The compounds of the present invention or other comparative drugs were given intraperitoneally once a day during the stress-causing operation. On the 6th day, Ach (10^-7 g/ml.) sensitivity of isolated duodenum was examined using the Magnus method.

dd-strain male mice [4] = assay: Inhibitory effect on exploratory movements; assay type: in vivo; settings: after 60 minutes
Procedure: 4.2. Inhibitory effect on exploratory movements:
Groups each comprising 16-35 dd-strain male mice were used. The compounds of the present invention were given intraperitoneally. After 60 minutes, exploratory movements for 15 minutes were measured with an exploratory movement recorder by a method of Tokyo Kyoiku University.

[5] = test system: normal mice and SART stress mice; assay: Analgesic effect, D'Amour-Smith method; assay type: in vivo, mice (ddY-strain male); settings: for responders at 100 mg/kg / responders at 160 mg/kg: Mus musculus; for responders at 160 mg/kg: peroral 160 mg/kg; for Analgesic effect: peroral 50 mg/kg
Outline: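 ddY male normal mice and mice under 4-day SART stress (n=10/group); black-inked tail root irradiated with infrared rays (up to 15 s cutoff), escape latency recorded. Effect expressed as proportion of mice whose mean latency at 30, 60, 90 and 120 min post-dose was at least 2× pre-dose latency.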

[6] = test system: normal mice and SART stress mice; assay: Analgesic effect, acetic acid writhing method; assay type: in vivo; settings: Mus musculus, sc, 100 mg/Kg subcutaneously
Outline: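 Normal mice and mice after 8 days of SART stress (5 per group) received 100 mg/Kg compound subcutaneously. Writhing was then induced with 0.7% acetic acid in isotonic saline, 0.1 ml/10 g i.p. Writhes were counted over 15 minutes and compared with control mice.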

SART stress mice = assay: Inhibitory effects on increase of heart rate and elongation of QRS-time in SART stress mice; assay type: in vivo, mice (dd-strain male); settings: 9th day, Average ± S.D.
Procedure: as §1
2. Inhibitory effects on increase of heart rate and elongation of QRS-time in stress animals:
Groups of mice each comprising 11 or 12 dd-strain male mice were divided into three groups in the same manner as above and heart rate and QRS-time were determined on the 9th day after initiation of the tests.

ddY-strain male mice = assay: Effect of prolongation of sleeping time (hexobarbital); assay type: in vivo; settings: for change in vivo at 100 mg/kg / change in vivo at 300 mg/kg: Mus musculus, ip; for change in vivo at 100 mg/kg: 100 mg/kg intraperitoneal; for change in vivo at 300 mg/kg: 300 mg/kg intraperitoneal
Outline: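 Groups of 10 male ddY mice received compounds intraperitoneally along with intraperitoneal sodium hexobarbital. Loss of righting reflex was timed, and prolongation was measured against control mice.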

[7] = Acute toxicity test (LD50, Litchfield-Wilcoxon), mice; settings: mouse, in vivo, ip, intraperitoneal
Procedure: Toxicity tests were carried out by intraperitoneal administration of the compound of the present invention to groups each comprising 10 ICR-strain mice and SD-strain rats. LD50 was calculated by the Litchfield-Wilcoxon method based on the number of death 72 hours after the administration.

[8] = SART stress rats, intraperitoneal 100 mg/kg
[9] = SART stress rats, peroral 100 mg/kg
[10] = normal rats, intraperitoneal 100 mg/kg
[11] = ip, SART stress mice, intraperitoneal 100 mg/kg
[12] = ip, normal mice, intraperitoneal 100 mg/kg
[13] = po, SART stress mice, peroral 100 mg/kg
[14] = po, normal mice, peroral 100 mg/kg

O=C1NC(=O)C(c2cc(O)c(O)c(O)c2)(c2cc(O)c(O)c(O)c2)N1 [Compound 36, 5,5-Bis(3,4,5-trihydroxyphenyl)hydantoin]
Analgesic effect [1, 8]: 50% | Analgesic effect [1, 9]: 33.3% | Analgesic effect [1, 10]: 33.3% | Analgesic effect ([1]; normal rats, peroral 100 mg/kg): 10% | Rate of antihypertension ([2]; 150 mg/Kg intraperitoneal): 19.8% | Antiulcerogenic effect on Shay's ulcer (operative ulcer) (Wistar-strain male rats; 100 mg/kg intraperitoneal): 30.1% | Antiulcerogenic effect on Shay's ulcer (operative ulcer) (Wistar-strain male rats; 150 mg/kg intraperitoneal): 43.9% | inhibition in vivo at 125 mg/kg (dd-strain male mice [3]): 31.2% | Ach-induced contraction of the isolated deodedum (isolated duodenum; 10 mg/kg/day intraperitoneal): 83 ± 8% | Inhibitory effect on exploratory movements (dd-strain male mice [4]; 50 mg/kg intraperitoneal): 30.6% | Inhibitory effect on exploratory movements (dd-strain male mice [4]; 100 mg/kg intraperitoneal): 36.7% | responders at 100 mg/kg [5, 11]: 60% | responders at 100 mg/kg [5, 12]: 40% | responders at 100 mg/kg [5, 13]: 30% | responders at 160 mg/kg ([5]; po, SART stress mice): 40% | responders at 100 mg/kg [5, 14]: 20% | responders at 160 mg/kg ([5]; po, normal mice): 30% | inhibition in vivo at 100 mg/kg ([6]; SART stress mice): 29.4% | inhibition in vivo at 100 mg/kg ([6]; normal mice): 8.2% | Heart rate (SART stress mice; 100 mg/kg/day): 737 ± 65 min⁻¹ | QRS-time (SART stress mice; 100 mg/kg/day): 13.8 ± 1.2 1/1000 sec | change in vivo at 100 mg/kg (ddY-strain male mice): 11.3% | change in vivo at 300 mg/kg (ddY-strain male mice): 46.7% | LD50 at 72 h ([7]; female): 780 mg/kg | LD50 at 72 h ([7]; male): 820 mg/kg

O=C1NC(=O)C(c2ccc(O)cc2)(c2ccc(O)cc2)N1 [Compound 4, 5,5-Bis(4-hydroxyphenyl)hydantoin]
Analgesic effect [1, 8]: 100% | Analgesic effect [1, 9]: 40% | Analgesic effect [1, 10]: 100% | Analgesic effect ([1]; normal rats, peroral 100 mg/kg): 0% | Rate of antihypertension ([2]; 100 mg/Kg intraperitoneal): 21.5% | Rate of antihypertension ([2]; 150 mg/Kg intraperitoneal): 34.1% | Rate of antihypertension ([2]; 300 mg/Kg intraperitoneal): 45.7% | Antiulcerogenic effect on Shay's ulcer (operative ulcer) (Wistar-strain male rats; 25 mg/kg intraperitoneal): 26.4% | Antiulcerogenic effect on Shay's ulcer (operative ulcer) (Wistar-strain male rats; 50 mg/kg intraperitoneal): 38.0% | Antiulcerogenic effect on Shay's ulcer (operative ulcer) (Wistar-strain male rats; 100 mg/kg intraperitoneal): 50.0% | Antiulcerogenic effect on Shay's ulcer (operative ulcer) (Wistar-strain male rats; 150 mg/kg intraperitoneal): 64.8% | inhibition in vivo at 25 mg/kg (dd-strain male mice [3]; 25 mg/kg intraperitoneal): 14.2% | inhibition in vivo at 75 mg/kg (dd-strain male mice [3]): 39.1% | inhibition in vivo at 125 mg/kg (dd-strain male mice [3]): 53% | Ach-induced contraction of the isolated deodedum (isolated duodenum; 5 mg/kg/day intraperitoneal): 61 ± 16% | Ach-induced contraction of the isolated deodedum (isolated duodenum; 10 mg/kg/day intraperitoneal): 95 ± 10% | Inhibitory effect on exploratory movements (dd-strain male mice [4]; 50 mg/kg intraperitoneal): 30.1% | Inhibitory effect on exploratory movements (dd-strain male mice [4]; 100 mg/kg intraperitoneal): 54.5% | Inhibitory effect on exploratory movements (dd-strain male mice [4]; 125 mg/kg intraperitoneal): 61.3% | responders at 100 mg/kg [5, 11]: 60% | responders at 100 mg/kg [5, 12]: 40% | responders at 100 mg/kg [5, 13]: 50% | responders at 160 mg/kg ([5]; po, SART stress mice): 60% | responders at 100 mg/kg [5, 14]: 20% | responders at 160 mg/kg ([5]; po, normal mice): 40% | Analgesic effect ([5]; SART stress mice): 40% | Analgesic effect ([5]; normal mice): 10% | inhibition in vivo at 100 mg/kg ([6]; SART stress mice): 33.6% | inhibition in vivo at 100 mg/kg ([6]; normal mice): 4.8% | Heart rate (SART stress mice; 37.5 mg/kg/day): 683 ± 61 min⁻¹ | QRS-time (SART stress mice; 37.5 mg/kg/day): 12.2 ± 0.8 1/1000 sec | Effect of prolongation of sleeping time (ddY-strain male mice; 20 mg/kg intraperitoneal): 37.2% | Effect of prolongation of sleeping time (ddY-strain male mice; 50 mg/kg intraperitoneal): 84.4% | change in vivo at 100 mg/kg (ddY-strain male mice): 124% | LD50 at 72 h ([7]; female): 980 mg/kg | LD50 at 72 h ([7]; male): 1060 mg/kg

COc1ccc(C2(c3ccc(OC)c(Cl)c3)NC(=O)NC2=O)cc1 (stereo not shown) [Compound 2, 5-(3-chloro-4-methoxyphenyl)-5-(4-methoxyphenyl)hydantoin]
Analgesic effect [1, 8]: 75% | Analgesic effect [1, 9]: 30% | Analgesic effect [1, 10]: 66.7% | Analgesic effect ([1]; normal rats, peroral 100 mg/kg): 10% | Rate of antihypertension ([2]; 150 mg/Kg intraperitoneal): 22.4% | Antiulcerogenic effect on Shay's ulcer (operative ulcer) (Wistar-strain male rats; 100 mg/kg intraperitoneal): 23.4% | Antiulcerogenic effect on Shay's ulcer (operative ulcer) (Wistar-strain male rats; 150 mg/kg intraperitoneal): 29.3% | inhibition in vivo at 75 mg/kg (dd-strain male mice [3]): 15.4% | inhibition in vivo at 150 mg/kg (dd-strain male mice [3]; 150 mg/kg intraperitoneal): 36.6% | Ach-induced contraction of the isolated deodedum (isolated duodenum; 10 mg/kg/day intraperitoneal): 80 ± 13% | Inhibitory effect on exploratory movements (dd-strain male mice [4]; 50 mg/kg intraperitoneal): 29.0% | Inhibitory effect on exploratory movements (dd-strain male mice [4]; 100 mg/kg intraperitoneal): 38.8% | Inhibitory effect on exploratory movements (dd-strain male mice [4]; 125 mg/kg intraperitoneal): 47.8% | responders at 100 mg/kg [5, 11]: 50% | responders at 100 mg/kg [5, 12]: 30% | responders at 100 mg/kg [5, 13]: 30% | responders at 160 mg/kg ([5]; po, SART stress mice): 60% | responders at 100 mg/kg [5, 14]: 10% | responders at 160 mg/kg ([5]; po, normal mice): 30% | inhibition in vivo at 100 mg/kg ([6]; SART stress mice): 27.1% | inhibition in vivo at 100 mg/kg ([6]; normal mice): 4.4% | Heart rate (SART stress mice; 50 mg/kg/day): 698 ± 42 min⁻¹ | QRS-time (SART stress mice; 50 mg/kg/day): 12.9 ± 0.8 1/1000 sec | change in vivo at 100 mg/kg (ddY-strain male mice): 55.9% | change in vivo at 300 mg/kg (ddY-strain male mice): 248% | LD50 at 72 h ([7]; female): 920 mg/kg | LD50 at 72 h ([7]; male): 1000 mg/kg

From US4281009A, “Hydantoin derivatives” (Nippon Zoki Pharmaceutical Co., Ltd., priority 1978, dated 1981)
